The subject of experiment [1] is Botrytis cinerea. Put plainly: Antifungal activity against Benzimidalzole-resistant Botryotinia fuckeliana isolate Bc-20 infected compound-treated kidney bean leaves at 200 ppm after 4 days. It is filed as functional.
Experiment [2] relates to Botrytis cinerea. Put plainly: Antifungal activity against Benzimidalzole-resistant Botryotinia fuckeliana isolate Bc-20 infected compound-treated kidney bean leaves at 50 ppm after 4 days. The format is functional.
Experiment [3] has as its system Botrytis cinerea. Put plainly: Antifungal activity against Benzimidalzole-resistant Botryotinia fuckeliana isolate Bc-40 at 0.001 to 1000 ppm after 3 days by agar dilution method. The format is functional, organism-based. Background: In agar dilution the substance is mixed into plates at graded concentrations.
Experiment [4] concerns Cercospora beticola. Description: Antifungal activity against Benzimidalzole-resistant Cercospora beticola isolate Cb-19 infected in sugar beet seedlings at 50 ppm applied as soil drench 3 days prior to inoculation. The format is functional.
The subject of experiment [5] is Botrytis cinerea. Put plainly: Antifungal activity against Benzimidalzole-resistant Botryotinia fuckeliana isolate Bc-44 infected compound-treated kidney bean leaves at 0.8 ppm after 4 days. It is filed as functional.

Activity calls are given as the source filed them. The rule behind the calls is not given here.

Regarding `C#CCOc1c(Cl)cc(N/C=N/OC)cc1Cl`, the Activity in experiment [1] was determined as 11%; in experiment [2], 6%. Further, the result in experiment [3] was inactive.

For the molecule `C#CCOc1cc(N/C=N/OC)cc(Cl)c1OCC#C`, the Activity in experiment [4] was determined as 68%; in experiment [5], 75%. Also, the outcome in experiment [3] was inactive.
